Experiments:
[1] = tested on: rVSIV-ΔG-MarV-GP pseudotype; assay: organism not typed; type: cell-based, Marburg virus; details: for IC50: HEK293, 24 h, read-out: ICMarV50
[2] = tested on: rVSIV-ΔG-G pseudotype; assay: microbe, parasite or virus in culture; type: cell-based, Vesicular stomatitis Indiana virus; details: for IC50: Vesicular stomatitis Indiana virus, HEK293, 24 h, read-out: ICVSIV50
[3] = tested on: HEK293 cells

Compound	IC50 [1] [µM]	IC50 [2] [µM]	specificity of inhibition of MarV-GP-mediated infection (in words) [1]	activity against rVSIV-ΔG-MarV-GP (in words) [1]	activity against rVSIV-ΔG-G (in words) [2]	toxicity (in words) [3]
CCN1CCN(CC(=O)O[C@@H]2C[C@@H]3CC[C@@]2(C)C3(C)C)CC1 [Compound 11]	29 ± 2	447 ± 15				
CN1CCN(CCC(=O)O[C@@H]2C[C@@H]3CC[C@@]2(C)C3(C)C)CC1 [Compound 10]	19 ± 1	318 ± 23				
CC1(C)[C@H]2CC[C@]1(C)[C@H](OC(=O)CCN1CCCC1)C2 [Compound 2]	12 ± 1	29 ± 6	non-specific inhibitors			
CC1CCN(CCC(=O)O[C@@H]2C[C@@H]3CC[C@@]2(C)C3(C)C)CC1 [Compound 6]	4 ± 1	79 ± 19	highest virus-specific activity			
CC1(C)[C@H]2CC[C@]1(C)[C@H](OC(=O)CCN1CCNCC1)C2 [Compound 14]	10 ± 4	102 ± 25				
CC1(C)[C@H]2CC[C@]1(C)[C@H](O)C2 [(–)-Borneol, reference compound]	203	> 650		not active	not active	nontoxic
CC1(C)[C@H]2CC[C@]1(C)[C@H](OC(=O)CCN1CCCCC1)C2 [Compound 4]	9 ± 1	121 ± 7				
CCN1CCN(CCC(=O)O[C@@H]2C[C@@H]3CC[C@@]2(C)C3(C)C)CC1 [Compound 12]	10 ± 2	106 ± 5				
CCCCN(CCCC)CC(=O)O[C@@H]1C[C@@H]2CC[C@@]1(C)C2(C)C [Compound 15]	11 ± 1	20 ± 1				highest toxicity
COc1ccc(CCN(C)CCCC(C#N)(c2ccc(OC)c(OC)c2)C(C)C)cc1OC (stereo not shown) [Verapamil, reference compound]	13 ± 1	> 200				
CCCCN(CCCC)CCC(=O)O[C@@H]1C[C@@H]2CC[C@@]1(C)C2(C)C [Compound 16]	6 ± 1	48 ± 5				highest toxicity
CC1(C)[C@H]2CC[C@]1(C)[C@H](OC(=O)CN1CCCCC1)C2 [Compound 3]	86 ± 11	102 ± 9				
CC1(C)[C@H]2CC[C@]1(C)[C@H](OC(=O)CN1CCNCC1)C2 [Compound 13]	20 ± 1	69 ± 13				
CN1CCN(CC(=O)O[C@@H]2C[C@@H]3CC[C@@]2(C)C3(C)C)CC1 [Compound 9]	47 ± 3	187 ± 24				
CC1(C)[C@H]2CC[C@]1(C)[C@H](OC(=O)CN1CCCC1)C2 [Compound 1]	52 ± 5	239 ± 19	non-specific inhibitors			
CC1(C)[C@H]2CC[C@]1(C)[C@H](OC(=O)CCN1CCOCC1)C2 [Compound 8]	78 ± 7	257 ± 12		do not exhibit activity		
CC1(C)[C@H]2CC[C@]1(C)[C@H](OC(=O)CN1CCOCC1)C2 [Compound 7]	263 ± 24	267 ± 10		do not exhibit activity		
CC1CCN(CC(=O)O[C@@H]2C[C@@H]3CC[C@@]2(C)C3(C)C)CC1 [Compound 5]	28 ± 2	77 ± 16				

Source: PMC6072471 (MedChemComm, 2017)
